In patent US7893199B2, “Peptides having neutrophil-stimulating activity” (National University Corporation Gunma University, priority 2006, dated 2011):
Where no end group is shown, it is not given here.

Assays:
[1] = system: differentiated HL-60 cells; experiment: migration activity (Chemotaxis Index) of differentiated HL-60 cells; assay type: cell-based, human
Experimental: (3) Measurement of Migration Activity
The cells were collected by centrifuging the suspension of the differentiated HL-60 cells (1,000 rpm, 5 minutes, 4° C.). After that, the following operation was repeated three times to wash the cells: 10% FBS-RPMI1640 was added to the cells; the mixture was suspended by inversion; and the mixture was centrifuged again (1,000 rpm, 5 minutes, 4° C.). Then, a medium (10% FBS-RPMI1640) was added so that a cell density was 4×10^6 cells/ml, thereby a cell suspension was prepared. Subsequently, 1 ml of each peptide solution (dissolved in 10% FBS-RPMI 1640) was transferred to each well of a 24-well plate, and the plate was incubated at 37° C. for 20 minutes. After that, 500 μl of the cell suspension (2×10^6 cells) were put in Chemotaxicell (KURABO […] LTD., 3 μm) and the Chemotaxicell was set in a plate, followed by incubation in the presence of 5% CO2 at 37° C. for 1 hour. Then, the Chemotaxicell was removed and the solution in each well of the plate was pipetted. The cells migrated to the plate side was suspended well and the number of the cells were measured. Note that the migration activity by the peptide was represented by a ratio of the number of the cells to the number of the cells passing the Chemotaxicell at the time of non-stimulation (Chemotaxis Index, CI).

[2] = system: G protein in the differentiated HL-60 cell membrane fraction; experiment: G protein activation ability (GTP hydrolysis) in cell membrane fraction; assay type: biochemical, human
Experimental: (4) Measurement of G Protein Activation Ability
The cells were collected by centrifuging the suspension of the differentiated HL-60 cells (1,000 rpm, 5 minutes, 4° C.). After that, the following operation was repeated three times to wash the cells: ice-cooled PBS was added to the cells; the mixture was suspended by inversion; and the mixture was centrifuged (1,000 rpm, 5 minutes, 4° C.). Then, the precipitated cells were suspended in a buffer for preparing a cell membrane fraction (20 mM Tris-HCl, 250 mM sucrose, 1.5 mM MgCl2, 3 mM benzamidine hydrochloride monohydrate, 1 μM leupeptin, 1 μM PMSF, 2 μg/ml trypsin inhibitor, pH 7.5) and a cell homogenate was prepared using nitrogen pressing-depressing type cell homogenizing apparatus (nitrogen pressure: 350 psi). After that, the resultant was ultracentrifuged (20,000 g, 4° C., 30 minutes) to remove the supernatant, and the precipitate was suspended in a membrane fraction buffer (20 mM Tris-HCl, 1 mM EDTA, 1 mM DTT, 77.5 mTIU/ml aprotinin, pH 7.5) and used as a cell membrane fraction. After dispensed, the cell membrane fraction was stored at −80° C. The activity of the G protein was quantified using the activity to hydrolyze GTP to GDP as an index. […] The mixture was centrifuged (15,000 rpm, 1 minute, 4° C.), and the radioactivity of the supernatant was measured.

bovine Gi1-G protein = biological target: T1, bovine Gi1-G protein (Bos taurus, UniProt P63097); experiment: G protein activation ability (GTP hydrolysis) with purified Gi1; assay type: biochemical
T1 construct: made in house; host or cells: E. coli
T1 sequence (P63097 whole entry): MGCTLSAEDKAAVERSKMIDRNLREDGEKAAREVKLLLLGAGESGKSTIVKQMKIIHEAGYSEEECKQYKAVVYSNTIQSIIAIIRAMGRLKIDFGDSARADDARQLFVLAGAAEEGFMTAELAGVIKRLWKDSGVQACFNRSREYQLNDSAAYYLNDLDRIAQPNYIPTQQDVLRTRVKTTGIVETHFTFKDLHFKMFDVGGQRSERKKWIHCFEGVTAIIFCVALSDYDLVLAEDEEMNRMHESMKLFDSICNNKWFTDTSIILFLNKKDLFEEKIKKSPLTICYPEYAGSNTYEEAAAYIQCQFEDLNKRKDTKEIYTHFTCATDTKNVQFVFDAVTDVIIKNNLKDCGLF

activation of purified Gi1 protein (bovine Gi1-G protein): activated
Sequence: MLWNLLALHQIGQRTISTASHRH [No. 019]
concentration of migration activity compared with that of β-hexosaminidase-secreting activity [1]: confirmed at the concentration lower than the concentration at which β-hexosaminidase-secreting activity was confirmed
desensitization of migration activity with increasing concentration of the peptide [1]: subjected to desensitization completely
activation of G protein [2]: activated
